# pIC50: −log10 of the molar value.
# How the values were obtained:
# [1] = molecular target: T1, P-selectin (Homo sapiens) (UniProt P16109); assay: Inhibitory activity was evaluated In vitro in Selectin P mediated cell adhesion assay at a concentration of 30uM
# T1 sequence (whole entry): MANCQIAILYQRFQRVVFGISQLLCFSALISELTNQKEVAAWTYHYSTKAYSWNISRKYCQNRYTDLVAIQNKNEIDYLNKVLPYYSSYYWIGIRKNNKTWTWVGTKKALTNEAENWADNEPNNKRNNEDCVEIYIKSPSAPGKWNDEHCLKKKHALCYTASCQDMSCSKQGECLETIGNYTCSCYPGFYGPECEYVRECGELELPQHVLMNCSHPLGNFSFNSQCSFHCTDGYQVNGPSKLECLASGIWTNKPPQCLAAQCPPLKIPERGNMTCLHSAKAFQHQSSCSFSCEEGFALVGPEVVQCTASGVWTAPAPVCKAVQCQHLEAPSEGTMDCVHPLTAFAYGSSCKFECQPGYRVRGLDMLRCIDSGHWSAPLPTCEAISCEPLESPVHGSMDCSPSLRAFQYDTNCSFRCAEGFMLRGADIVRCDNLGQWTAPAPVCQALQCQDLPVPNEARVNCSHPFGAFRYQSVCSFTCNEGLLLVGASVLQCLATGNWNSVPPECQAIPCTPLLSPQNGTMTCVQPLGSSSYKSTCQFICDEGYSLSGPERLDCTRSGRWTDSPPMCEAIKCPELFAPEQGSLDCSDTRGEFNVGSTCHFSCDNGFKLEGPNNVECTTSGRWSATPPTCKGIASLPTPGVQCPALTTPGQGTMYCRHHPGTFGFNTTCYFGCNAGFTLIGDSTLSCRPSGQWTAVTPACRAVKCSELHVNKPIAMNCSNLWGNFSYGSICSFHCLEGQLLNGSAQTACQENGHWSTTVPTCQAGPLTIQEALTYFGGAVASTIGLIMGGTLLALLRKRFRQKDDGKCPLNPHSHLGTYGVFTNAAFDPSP
# [2] = Cell cytotoxicity of compound was evaluated In vitro in P-selectin mediated cell adhesion assay at a concentration of 30 uM; type: functional
# [3] = molecular target: T2, P-selectin (Homo sapiens, UniProt P16109); assay: Inhibitory activity of compound against Selectin P/sLex binding was determined
# T2 sequence (P16109 whole entry): T1 sequence (whole entry)
Structure (SMILES),inhibition [1],Death [2],pIC50 [3]
CCCCCCCCCCCCCCC(CCCCCCCCCCCCCC)CNC(=O)c1cc(CSC2OC(C)C(O)C(O)C2O)cc(C(=O)NCCC(=O)O)c1 (centres undefined),31.3%,2.8%,–
CCCCCCCCCCCCCCC(CCCCCCCCCCCCCC)CNC(=O)c1cc(CSC2OC(C)C(O)C(O)C2O)cc(C(=O)O)c1 (centres undefined),75.7%,1.9%,4.97
CCCCCCCCCCCCCCC(CCCCCCCCCCCCCC)C(=O)N[C@@H](CO[C@@H]1O[C@@H](C)[C@@H](O)[C@H](O)[C@@H]1O)C(=O)N[C@@H](CCC(=O)O)C(=O)NC,42.8%,1.7%,–
CCCCCCCCCCCCCCC(CCCCCCCCCCCCCC)CNC(=O)c1cc(CSC2OC(C)C(O)C(O)C2O)cc(C(=O)NC(CCC(=O)O)C(=O)NC)c1 (centres undefined),-0.9%,5.3%,–

# — ChEMBL document CHEMBL1133941, “Drug design, synthesis, and evaluation of a non-sugar-based selectin antagonist” (Bioorg Med Chem Lett, 2001)
